The nature of data set [1]: Cytotoxicity against human Chang liver cells assessed as reduction in cell viability after 24 hrs by DAPI/propidium iodide staining based assay.
The subject of data set [2] is MCF7. Kind of data set: Antiproliferative activity against human MCF7cells assessed as reduction in cell viability after 24 hrs by DAPI/propidium iodide staining based assay. The data set is classed as functional. The settings on record: MCF7, 24 h.
Data set [3] has as its system M-HeLa. The data set is described as follows: Antiproliferative activity against human M-HeLa cells assessed as reduction in cell viability after 24 hrs by DAPI/propidium iodide staining based assay. The data set is classed as functional.
Data set [4] deals with M-HeLa. Kind of data set: Induction of mitochondrial membrane potential loss in human M-HeLa cells assessed as intact mitochondrial membrane potential at 25 uM after 24 hrs by Jc-10 dye based flow cytometric analysis (reference value: 77.48%). The data set is classed as functional.
The test system of data set [5] is M-HeLa. The data set is described as follows: Induction of apoptosis in human M-HeLa cells assessed as viable cells at 25 uM after 24 hrs by annexin V-FITC/PIstaining based flow cytometric analysis (reference value: 93.33%). The settings on record: read-out: Activity. The data set is classed as functional. For orientation: A flow cytometer gives signals particle by particle.

For data set [6], the system named is M-HeLa. Kind of data set: Induction of apoptosis in human M-HeLa cells assessed as late apoptotic cells at 25 uM after 24 hrs by annexin V-FITC/PIstaining based flow cytometric analysis (reference value: 0.62%). The data set is classed as functional.
Data set [7] relates to M-HeLa. The data set is described as follows: Induction of apoptosis in human M-HeLa cells assessed as necrotic cells at 25 uM after 24 hrs by annexin V-FITC/PIstaining based flow cytometric analysis (reference value: […]). Format: functional.
A short description of data set [8]: Hemolytic activity in human Erythrocytes at 100 +/- 7.8 uM relative to control. Format: ADME, cell-based, Erythrocyte. The settings on record: read-out: Activity.
Data set [9] concerns M-HeLa. The data set is described as follows: Induction of apoptosis in human M-HeLa cells assessed as viable cells at 10 uM after 24 hrs by annexin V-FITC/PIstaining based flow cytometric analysis (reference value: 93.33%). Format: functional. The settings on record: read-out: Activity.
A short description of data set [10]: Hemolytic activity in human Erythrocytes at 10 +/- 0.8 uM relative to control. Format: ADME, cell-based, Erythrocyte. The settings on record: read-out: Activity.
Data set [11] can be described thus: Hemolytic activity in human Erythrocytes at 50 +/- 0.8 uM relative to control. The data set is classed as ADME, cell-based, Erythrocyte. The settings on record: read-out: Activity.
For data set [12], the system named is M-HeLa. Kind of data set: Induction of apoptosis in human M-HeLa cells assessed as necrotic cells at 10 uM after 24 hrs by annexin V-FITC/PIstaining based flow cytometric analysis (reference value: […]). The data set is classed as functional.
Data set [13] deals with M-HeLa. Kind of data set: Induction of apoptosis in human M-HeLa cells assessed as late apoptotic cells at 10 uM after 24 hrs by annexin V-FITC/PIstaining based flow cytometric analysis (reference value: 0.62%). The data set is classed as functional.
The test system of data set [14] is M-HeLa. Kind of data set: Induction of apoptosis in human M-HeLa cells assessed as early apoptotic cells at 25 uM after 24 hrs by annexin V-FITC/PIstaining based flow cytometric analysis (reference value: 1.5%). Format: functional.
Data set [15] concerns M-HeLa. Kind of data set: Induction of mitochondrial membrane potential loss in human M-HeLa cells assessed as collapsed mitochondrial membrane potential at 25 uM after 24 hrs by Jc-10 dye based flow cytometric analysis (reference value: 22.17%). The data set is classed as functional.
Data set [16] relates to M-HeLa. The data set is described as follows: Induction of mitochondrial membrane potential loss in human M-HeLa cells assessed as intact mitochondrial membrane potential at 10 uM after 24 hrs by Jc-10 dye based flow cytometric analysis (reference value: 77.48%). The data set is classed as functional.
For data set [17], the system named is M-HeLa. The data set is described as follows: Induction of apoptosis in human M-HeLa cells assessed as early apoptotic cells at 10 uM after 24 hrs by annexin V-FITC/PIstaining based flow cytometric analysis (reference value: 1.5%). The data set is classed as functional.
For data set [18], the system named is M-HeLa. Kind of data set: Induction of mitochondrial membrane potential loss in human M-HeLa cells assessed as collapsed mitochondrial membrane potential at 10 uM after 24 hrs by Jc-10 dye based flow cytometric analysis (reference value: 22.17%). Format: functional.

Here are results for 17 molecules from ChEMBL document CHEMBL4373667, “Synthesis and anti-cancer activities of glycosides and glycoconjugates of diterpenoid isosteviol” (Medchemcomm, 2019).

As usually defined, the IC50 is the concentration that gives 50% inhibition.

As to `C[C@@]12CC[C@@H]3[C@@](CC[C@H]4[C@@]3(C)CCC[C@@]4(C)C(=O)O[C@@H]3O[C@H](C(=O)NN)[C@@H](O)[C@H](O)[C@H]3O)(C/C1=N\N)C2`, the IC50 in [1], in data set [2] and in data set [3] was over 100 µM in each case.
For `COC(=O)[C@H]1O[C@@H](OC(=O)[C@]2(C)CCC[C@@]3(C)[C@@H]4CC[C@@]5(C)C[C@]4(CC[C@@H]32)CC5=O)[C@H](OC(C)=O)[C@@H](OC(C)=O)[C@@H]1OC(C)=O`, the results for the IC50 in [1], in [2] and in data set [3] were over 100 µM, 65 µM and 26 µM, respectively.
With `CC(=O)OC[C@H]1O[C@H](OC(=O)[C@]2(C)CCC[C@@]3(C)[C@@H]4CC[C@@]5(C)C[C@]4(CC[C@@H]32)CC5=O)[C@@H](OC(C)=O)[C@@H](OC(C)=O)[C@@H]1OC(C)=O`, the IC50 in data set [1] was over 100 µM; in data set [2] it was 29.3 µM; in [3], 15.1 µM. Also, the Activity was found to be 7.74% in data set [4]; 12.97% in data set [6]; 0.28% in data set [7]; 3.98% in [12]; 7.25% in data set [13]; 13.12% in [14]. For the same molecule, the Activity is recorded as 92.26% in [15], 28.67% in [16], 3.02% in data set [17] and 70.85% in data set [18]. Moreover, the viability at 25 µM in data set [5] was 73.7%. In addition, the hemolysis at 100 uM in [8] came out at 0%. In data set [9], the viability at 10 µM came to 85.8%. Besides, the hemolysis at 10 uM in [10] is 0%. Further, in data set [11], the hemolysis at 50 uM amounted to 0%.
Consider `CC(=O)OC[C@H]1O[C@H](OC(=O)CCCCCCCCCOC(=O)[C@]2(C)CCC[C@@]3(C)[C@@H]4CC[C@@]5(C)C[C@]4(CC[C@@H]32)CC5=O)[C@@H](OC(C)=O)[C@@H](OC(C)=O)[C@@H]1OC(C)=O`, for which the figures for the IC50 in data set [1], in data set [2] and in [3] were over 100 µM, 31 µM and 18 µM, respectively.
The matching figures for `CC(=O)OC[C@H]1O[C@@H](OC(=O)[C@]2(C)CCC[C@@]3(C)[C@@H]4CC[C@@]5(C)C[C@]4(CC[C@@H]32)CC5=O)[C@H](OC(C)=O)[C@@H](OC(C)=O)[C@H]1OC(C)=O`: over 100 µM, over 100 µM and over 100 µM.
For `CC(=O)OC[C@H]1O[C@H](OC(=O)CCCCCOC(=O)[C@]2(C)CCC[C@@]3(C)[C@@H]4CC[C@@]5(C)C[C@]4(CC[C@@H]32)CC5=O)[C@@H](OC(C)=O)[C@@H](OC(C)=O)[C@@H]1OC(C)=O`, the IC50 in [1] was over 100 µM; in data set [2], 63.2 µM; in data set [3], 11 µM. The Activity in data set [4] amounted to 10.64%; in data set [6] it was 5.02%; in data set [7] it was 0.05%; in [12], 0.22%; in data set [13], 5.59%; in data set [14] it was 10.59%. In addition, the Activity in data set [15] came to 89.29%; in data set [16], 8.98%; in data set [17], 7.57%; in [18], 90.91%. The viability at 25 µM in [5] is 84.3%. The hemolysis at 100 uM in data set [8] worked out at 5.5%. The viability at 10 µM in [9] came to 86.6%. For the same molecule, in data set [10], the hemolysis at 10 uM came out at 0%. Also, the hemolysis at 50 uM in [11] was 1.7%.
As for `CC(=O)OC[C@H]1O[C@@H](OC(=O)CCCCCCCCCOC(=O)[C@]2(C)CCC[C@@]3(C)[C@@H]4CC[C@@]5(C)C[C@]4(CC[C@@H]32)CC5=O)[C@H](OC(C)=O)[C@@H](OC(C)=O)[C@H]1OC(C)=O`, the figures for the concentration for half-maximal inhibition (IC50) in data set [1], in data set [2] and in [3] were over 100 µM, 33.2 µM and 27 µM, respectively.
The like results for `C[C@@]12CC[C@@H]3[C@@](CC[C@H]4[C@@]3(C)CCC[C@@]4(C)C(=O)O[C@@H]3O[C@H](CO)[C@H](O)[C@H](O)[C@H]3O)(CC1=O)C2` were, in that order, 58 µM, 29 µM and 52 µM.
The matching figures for `C[C@@]12CC[C@@H]3[C@@](CC[C@H]4[C@@]3(C)CCC[C@@]4(C)C(=O)O[C@H]3O[C@H](CO)[C@@H](O)[C@H](O)[C@@H]3O)(CC1=O)C2`: over 100 µM, over 100 µM and over 100 µM.
In the case of `CC(=O)OC[C@H]1O[C@@H](OC(=O)[C@]2(C)CCC[C@@]3(C)[C@@H]4CC[C@@]5(C)C[C@]4(CC[C@@H]32)CC5=O)[C@H](OC(C)=O)[C@@H](OC(C)=O)[C@@H]1OC(C)=O`, the IC50 in data set [1], in data set [2] and in data set [3] was over 100 µM in each case.
For `CC(=O)N[C@H]1[C@H](OC(=O)CCCCCOC(=O)[C@]2(C)CCC[C@@]3(C)[C@@H]4CC[C@@]5(C)C[C@]4(CC[C@@H]32)CC5=O)O[C@H](COC(C)=O)[C@@H](OC(C)=O)[C@@H]1OC(C)=O`, the IC50 in [1] is 51.2 µM; in data set [2] it was over 100 µM; in [3], 46 µM.
The matching figures for `CC(=O)N[C@H]1[C@H](OC(=O)[C@]2(C)CCC[C@@]3(C)[C@@H]4CC[C@@]5(C)C[C@]4(CC[C@@H]32)CC5=O)O[C@H](COC(C)=O)[C@@H](OC(C)=O)[C@@H]1OC(C)=O`: 86 µM, 36 µM and 18 µM.
The like results for `CC(=O)N[C@H]1[C@H](OC(=O)[C@]2(C)CCC[C@@]3(C)[C@@H]4CC[C@@]5(C)C[C@]4(CC[C@@H]32)CC5=O)O[C@H](CO)[C@@H](O)[C@@H]1O` were, in that order, over 100 µM, over 100 µM and over 100 µM.
Turning to `CC(=O)OC[C@H]1O[C@@H](OC(=O)CCCCCOC(=O)[C@]2(C)CCC[C@@]3(C)[C@@H]4CC[C@@]5(C)C[C@]4(CC[C@@H]32)CC5=O)[C@H](OC(C)=O)[C@@H](OC(C)=O)[C@H]1OC(C)=O`, the IC50 in [1] is over 100 µM; in data set [2], 32.1 µM; in [3], 10 µM. Further, the Activity in [4] is 11.53%; in data set [6], 13.98%; in data set [7], 8.9%; in data set [12], 5.49%; in [13], 7.61%; in data set [14] it was 39.77%. Also, the Activity in data set [15] amounted to 88.38%; in data set [16] it was 55.78%; in data set [17], 34.78%; in data set [18] it was 44.17%. Moreover, the viability at 25 µM in data set [5] came out at 37.3%. In [8], the hemolysis at 100 uM is 0%. Besides, the viability at 10 µM in [9] was found to be 52.1%. Besides, in [10], the hemolysis at 10 uM turned out to be 0%. For the same molecule, the hemolysis at 50 uM in [11] is 0%.
Turning to `CC(=O)N[C@H]1[C@H](OC(=O)CCCCCCCCCOC(=O)[C@]2(C)CCC[C@@]3(C)[C@@H]4CC[C@@]5(C)C[C@]4(CC[C@@H]32)CC5=O)O[C@H](COC(C)=O)[C@@H](OC(C)=O)[C@@H]1OC(C)=O`, the IC50 was over 100 µM in data set [1], 64.9 µM in data set [2] and over 100 µM in data set [3].
In the case of `C[C@@]12CC[C@@H]3[C@@](CC[C@H]4[C@@]3(C)CCC[C@@]4(C)C(=O)O[C@@H]3O[C@H](CO)[C@@H](O)[C@H](O)[C@H]3O)(CC1=O)C2`, the figures for the IC50 in [1], in [2] and in data set [3] were over 100 µM, over 100 µM and 32 µM, respectively.
As for `CC/C(=C(\c1ccccc1)c1ccc(OCCN(C)C)cc1)c1ccccc1` [TAMOXIFEN], in [1], the IC50 amounted to 46 µM.
